Experimental data reported in patent US7598397B2, “Sulfonamide peri-substituted bicyclics for occlusive artery disease” (deCODE genetics ehf, priority 2004, dated 2009).

Biological target: T1, prostanoid EP3 receptors (Homo sapiens, UniProt P43115)
T1 sequence (P43115 1-390): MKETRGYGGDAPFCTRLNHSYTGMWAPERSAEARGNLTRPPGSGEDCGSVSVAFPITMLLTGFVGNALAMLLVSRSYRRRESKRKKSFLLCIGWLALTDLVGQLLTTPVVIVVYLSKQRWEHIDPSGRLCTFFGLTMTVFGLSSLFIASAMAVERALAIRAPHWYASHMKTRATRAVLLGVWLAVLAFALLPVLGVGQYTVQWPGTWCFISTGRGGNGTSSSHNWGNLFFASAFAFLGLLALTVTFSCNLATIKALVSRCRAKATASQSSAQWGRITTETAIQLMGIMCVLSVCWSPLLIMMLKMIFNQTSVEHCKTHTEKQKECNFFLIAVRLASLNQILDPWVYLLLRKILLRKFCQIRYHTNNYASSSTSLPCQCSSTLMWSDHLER
Assay: binding on prostanoid EP3 receptors (method of Abramovitz et al.)
Conditions: read-out: Activity (EP3 receptor binding, IC50 class)
Description: The compounds of the invention were assayed for their binding on prostanoid EP3 receptors according to the method of Abramovitz et al. [Bioch. Biophys.

| SMILES | IC50 |
| --- | --- |
| Cc1cn(Cc2ccc(F)c(F)c2)c2c(/C=C/C(=O)NS(=O)(=O)c3cccs3)cccc12 [Compound P103] | < 1000 nM |
| O=C(C=Cc1cccc2c1N(Cc1ccc3ccccc3c1)C(=O)C2(O)C(F)(F)F)NS(=O)(=O)c1cccs1 (stereo not drawn) [Compound P104] | < 1000 nM |
| CC1C(=O)N(Cc2ccc(Cl)cc2Cl)c2c(C=CC(=O)NS(=O)(=O)c3cc(Cl)c(Cl)s3)cccc21 (stereo not drawn) [Compound P107] | < 1000 nM |
| CC1(Br)C(=O)N(Cc2ccc3ccccc3c2)c2c(C=CC(=O)NS(=O)(=O)c3cccs3)cccc21 (stereo not drawn) [Compound P110] | < 1000 nM |
| CC1(O)C(=O)N(Cc2ccc3ccccc3c2)c2c(C=CC(=O)NS(=O)(=O)c3cccs3)cccc21 (stereo not drawn) [Compound P111] | < 1000 nM |
| CC1C(=O)N(Cc2ccc3ccccc3c2)c2c(C=CC(=O)NS(=O)(=O)c3cc(Cl)c(Cl)s3)cccc21 (stereo not drawn) [Compound P112] | < 1000 nM |
| O=C(C=Cc1cccc2c1N(Cc1ccc(Cl)cc1Cl)C(=O)C2=O)NS(=O)(=O)c1cc(Cl)c(Cl)s1 [Compound P113] | < 1000 nM |
| O=C(C=Cc1cccc2c1N(Cc1ccc3ccccc3c1)C(=O)C21OCCO1)NS(=O)(=O)c1cc(Cl)c(Cl)s1 [Compound P114] | < 1000 nM |
| O=C(C=Cc1cccc2c1N(Cc1ccc3ccccc3c1)C(=O)C2=O)NS(=O)(=O)c1cc(Cl)c(Cl)s1 [Compound P115] | < 1000 nM |
| Cc1cn(Cc2ccc(Cl)c(Cl)c2)c2c(/C=C/C(=O)NS(=O)(=O)c3cc(Cl)c(Cl)s3)cccc12 [Compound P118] | < 1000 nM |
| Cc1cn(Cc2cccc(C(F)(F)F)c2)c2c(/C=C/C(=O)NS(=O)(=O)c3cc(Cl)c(Cl)s3)cccc12 [Compound P119] | < 1000 nM |
| Cc1cn(Cc2ccc(F)cc2)c2c(/C=C/C(=O)NS(=O)(=O)c3cc(Cl)c(Cl)s3)cccc12 [Compound P120] | < 1000 nM |
| Cc1cn(Cc2ccccc2)c2c(/C=C/C(=O)NS(=O)(=O)c3cc(Cl)c(Cl)s3)cccc12 [Compound P122] | < 1000 nM |
| Cc1cn(Cc2ccccc2Cl)c2c(/C=C/C(=O)NS(=O)(=O)c3cc(Cl)c(Cl)s3)cccc12 [Compound P123] | < 1000 nM |
| Cc1cn(Cc2c(Cl)cccc2Cl)c2c(/C=C/C(=O)NS(=O)(=O)c3cc(Cl)c(Cl)s3)cccc12 [Compound P124] | < 1000 nM |
| Cc1cn(Cc2ccccc2-c2ccccc2)c2c(/C=C/C(=O)NS(=O)(=O)c3cc(Cl)c(Cl)s3)cccc12 [Compound P125] | < 1000 nM |
| O=C(C=Cc1cccc2c1N(Cc1ccc(Cl)cc1Cl)C(=O)C2)NS(=O)(=O)c1cc(Cl)c(Cl)s1 [Compound P127] | < 1000 nM |
| CC(=O)CC1(O)C(=O)N(Cc2ccc(Cl)cc2Cl)c2c(C=CC(=O)NS(=O)(=O)c3cc(Cl)c(Cl)s3)cccc21 (stereo not drawn) [Compound P128] | < 1000 nM |
| O=C(C=Cc1cccc2ccn(Cc3ccc(Cl)cc3Cl)c12)NS(=O)(=O)c1cc(Cl)c(Cl)s1 [Compound P129] | < 1000 nM |
| O=C(C=Cc1cccc2c1N(Cc1ccc(Cl)cc1Cl)C(=O)C2O)NS(=O)(=O)c1cc(Cl)c(Cl)s1 (stereo not drawn) [Compound P130] | < 1000 nM |

Continued, values first:

| IC50 | SMILES |
| --- | --- |
| < 1000 nM | CC1(C)C(=O)N(Cc2ccc(Cl)cc2Cl)c2c(C=CC(=O)NS(=O)(=O)c3cc(Cl)c(Cl)s3)cccc21 [Compound P131] |
| < 1000 nM | CC1(O)C(=O)N(Cc2ccc(Cl)cc2Cl)c2c(C=CC(=O)NS(=O)(=O)c3cc(Cl)c(Cl)s3)cccc21 (stereo not drawn) [Compound P133] |
| < 1000 nM | O=C(C=Cc1cccc2c1N(Cc1ccc(Cl)cc1Cl)C(=O)C2(O)C[N+](=O)[O-])NS(=O)(=O)c1cc(Cl)c(Cl)s1 (stereo not drawn) [Compound P134] |
| < 1000 nM | Cc1cn(Cc2ccc(F)c(F)c2)c2c(/C=C/C(=O)NS(=O)(=O)c3cc(Cl)c(Cl)s3)cccc12 [Compound P135] |
| < 1000 nM | Cc1cn(Cc2cc(F)cc(F)c2)c2c(/C=C/C(=O)NS(=O)(=O)c3cc(Cl)c(Cl)s3)cccc12 [Compound P136] |
| < 1000 nM | Cc1cn(Cc2ccc(Cl)cc2)c2c(/C=C/C(=O)NS(=O)(=O)c3cc(Cl)c(Cl)s3)cccc12 [Compound P137] |
| < 1000 nM | Cc1ccc(C)c(Cn2cc(C)c3cccc(/C=C/C(=O)NS(=O)(=O)c4cc(Cl)c(Cl)s4)c32)c1 [Compound P138] |
| < 1000 nM | Cc1cn(Cc2ccc3c(c2)OCO3)c2c(/C=C/C(=O)NS(=O)(=O)c3cc(Cl)c(Cl)s3)cccc12 [Compound P139] |
| < 1000 nM | Cc1cn(Cc2cccc(OC(F)(F)F)c2)c2c(/C=C/C(=O)NS(=O)(=O)c3cc(Cl)c(Cl)s3)cccc12 [Compound P140] |
| < 1000 nM | COc1cc(Cn2cc(C)c3cccc(/C=C/C(=O)NS(=O)(=O)c4cc(Cl)c(Cl)s4)c32)cc(OC)c1 [Compound P141] |
| < 1000 nM | COc1cccc(Cn2cc(C)c3cccc(/C=C/C(=O)NS(=O)(=O)c4cc(Cl)c(Cl)s4)c32)c1 [Compound P142] |
| < 1000 nM | Cc1cn(Cc2ccc(OC(F)(F)F)cc2)c2c(/C=C/C(=O)NS(=O)(=O)c3cc(Cl)c(Cl)s3)cccc12 [Compound P143] |
| < 1000 nM | Cc1cn(CC2CCOCC2)c2c(/C=C/C(=O)NS(=O)(=O)c3cc(Cl)c(Cl)s3)cccc12 [Compound P144] |
| < 1000 nM | Cc1cn(Cc2ccc(OC(F)F)cc2)c2c(/C=C/C(=O)NS(=O)(=O)c3cc(Cl)c(Cl)s3)cccc12 [Compound P145] |
| < 1000 nM | Cc1cn(Cc2ccc3ccccc3n2)c2c(/C=C/C(=O)NS(=O)(=O)c3cc(Cl)c(Cl)s3)cccc12 [Compound P146] |
| < 1000 nM | CN1C(=O)C(C)(Cc2ccc3ccccc3c2)c2c(C=CC(=O)NS(=O)(=O)c3cc(Cl)c(Cl)s3)cccc21 (stereo not drawn) [Compound P148] |
| < 1000 nM | O=C(C=Cc1cccc2c1C(Cc1ccc3ccccc3c1)C(=O)N2)NS(=O)(=O)c1cc(Cl)c(Cl)s1 (stereo not drawn) [Compound P155] |
| < 1000 nM | CN1C(=O)C(C)(Cc2ccc3ccccc3c2)c2c(CCC(=O)NS(=O)(=O)c3cc(Cl)c(Cl)s3)cccc21 (stereo not drawn) [Compound P156] |
| < 1000 nM | O=C(COc1cccc2c1C(F)(Cc1ccc3ccccc3c1)C(=O)N2)NS(=O)(=O)c1cc(Cl)c(Cl)s1 (stereo not drawn) [Compound P157] |
| < 1000 nM | O=C(COc1cccc2c1C(Cc1ccc3ccccc3c1)C(=O)N2)NS(=O)(=O)c1cc(Cl)c(Cl)s1 (stereo not drawn) [Compound P158] |
| < 1000 nM | CC1(F)C(=O)N(Cc2ccc3ccccc3c2)c2c(C=CC(=O)NS(=O)(=O)c3cccs3)cccc21 (stereo not drawn) [Compound P160] |
| < 1000 nM | CC1(F)C(=O)N(Cc2ccc3ccccc3c2)c2c(C=CC(=O)NS(=O)(=O)c3cc(Cl)c(Cl)s3)cccc21 (stereo not drawn) [Compound P161] |
| < 1000 nM | Cc1ccc(Sc2c[nH]c3cccc(OCC(=O)NS(=O)(=O)c4cc(Cl)c(Cl)s4)c23)c(C)c1 [Compound P165] |
| < 1000 nM | O=C(COc1cccc2[nH]cc(Sc3ccc4ccccc4c3)c12)NS(=O)(=O)c1cccs1 [Compound P166] |
| < 1000 nM | COc1ccc(S(=O)(=O)c2c[nH]c3cccc(OCC(=O)NS(=O)(=O)c4cc(Cl)c(Cl)s4)c23)cc1OC [Compound P170] |
| < 1000 nM | Cc1ccc(S(=O)(=O)c2c[nH]c3cccc(OCC(=O)NS(=O)(=O)c4cc(Cl)c(Cl)s4)c23)c(C)c1 [Compound P172] |
| < 1000 nM | O=C(COc1cccc2[nH]cc(Sc3ccc(Cl)c(Cl)c3)c12)NS(=O)(=O)c1cc(Cl)c(Cl)s1 [Compound P178] |
| < 1000 nM | O=C(C=Cc1cccc2c1N(Cc1ccc3ccccc3c1)C(=O)C2)NS(=O)(=O)c1cc(Cl)c(Cl)s1 [Compound P179] |
